In US20100240653A1, “BIPHENYL SULFONYL AND PHENYL-HETEROARYL SULFONYL MODULATORS OF THE HISTAMINE H3-RECEPTOR USEFUL FOR THE TREATMENT OF DISORDERS RELATED THERETO” (priority 2006, published 2010):

Tests used:
Histamine H3-receptor = Histamine H3-receptor (Rattus norvegicus, UniProt Q9QYN8); experiment: [3H]N-alpha-methyl-histamine competitive histamine H3-receptor binding assay (rat brain cortex membranes); conditions: whole rat brain cortex membranes, [3H]-N-α-methyl-histamine 1 nM
Description: The histamine receptor binding assay was conducted using standard laboratory procedures as described below. A crude membrane fraction was prepared from whole rat brain cortex using a polytron to homogenize the tissue followed by differential centrifugation in a HEPES-based buffer containing protease inhibitors. Membranes where frozen at −80° C. until needed. Frozen membranes were thawed and resuspended in ice-cold assay buffer consisting of 50 mM TRIS containing 5 mM EDTA (pH=7.4). 50 micrograms (μg) of membrane protein was added to each well of a 96-well assay plate along with test compound and [^3H]-N-α-methyl-histamine (1 nanomolar (nM) final assay concentration). Imetit was used as an assay positive control at varying concentrations. The plate was incubated for 30 min at room temperature. The assay was terminated by rapid filtration through a 96-well glass fiber filtration plate (GF/C) using a cell harvester (Perkin-Elmer). Captured membranes were washed three times with cold assay buffer and plates were dried at 50° C. 35 microliters (μL) of scintillation cocktail was added to each well and membrane-bound radioactivity was recorded using a TopCount 96-well plate scintillation counter (Perkin-Elmer).

male Sprague Dawley rats = experiment: Blockade of RAMH-induced drinking assay; format: in vivo; conditions: rat, 0.3 mg/kg PO, RAMH 3 mg/kg SC, drinking 20 min
Description: When administered to rodents, H3 agonists such as R-α-methyl-histamine (RAMH) induce a drinking response that is sensitive to reversal with an H3 antagonist. Blockade of RAMH-induced drinking can therefore be utilized as an in vivo assay for functional H3 antagonist activity. In this assay, male Sprague Dawley rats (250-350 g) were housed three per cage and maintained under a reverse 12 h light cycle (lights off at 1130 h). At 1030 h on the day of test, rats were individually housed in new cages and food was removed. 120 min later, rats were administered test article (vehicle or H3 antagonist, 0.3 mg/kg PO). 30 min later, water was removed, and RAMH (vehicle or RAMH 3 mg/kg salt SC) was administered. 10 min after administration of RAMH, weighed water bottles were placed in the cages, and drinking was allowed for 20 min. Water consumption was determined for each animal by weighing each bottle to the nearest 0.1 g. Data is expressed as percentage reduction in water intake according to the following formula:
[1−[(ANTAGONIST/RAMH)−(VEHICLE/RAMH)/(VEHICLE/RAMH)−(VEHICLENEHICLE)]]*100

[1] = biological target: T1, human histamine H3-receptor (Homo sapiens, UniProt Q9Y5N1); experiment: Human histamine H3-receptor binding assay, MDS Pharma Services (Taiwan), Catalogue No. 239810
T1 construct: purchased MDS Pharma Services (Taiwan) 239810
Description: Compounds of the invention were tested for their ability to bind to the human histamine H3-receptor using the MDS Pharma Services (Taiwan) assay, Catalogue No. 239810.

Male Sprague-Dawley rats = experiment: Rat polysomnography (EEG/EMG wakefulness); format: in vivo; conditions: over 1 h after oral administration at 0.6 mg/kg
Description: Animals: Male Sprague-Dawley rats (225-350 g) (Harlan, San Diego, Calif.) were singly housed and maintained in a humidity—(30-70%) and temperature—(20-22° C.) controlled facility on a 12 h:12 h light/dark cycle (lights on at 6:30 A.M.) with free access to food (Harlan-Teklad Western Res., Orange, Calif., Rodent Diet 8604) and water. Rats were allowed at least three days of habituation to the animal facility before surgery.
Rats were anaesthetized with a ketamine/xylazine mixture, and surgically prepared for
EEG and EMG recording. After 2-3 weeks of post-surgical recovery, rats were habituated to polypropylene test cages for at least three days. On test days, the rats were placed in the test chambers and habituated overnight. At 10 am the next day, the rats were administered the test compound, connected to the recording apparatus, and placed back into the test chambers for 3 h.
EEG and EMG data were digitized and stored in 10 s epochs over the three hour test period. […] […] Percent increase in wakefulness was then derived for each rat.

Sequence of Histamine H3-receptor (Q9QYN8 1-397 isoform Q9QYN8-3): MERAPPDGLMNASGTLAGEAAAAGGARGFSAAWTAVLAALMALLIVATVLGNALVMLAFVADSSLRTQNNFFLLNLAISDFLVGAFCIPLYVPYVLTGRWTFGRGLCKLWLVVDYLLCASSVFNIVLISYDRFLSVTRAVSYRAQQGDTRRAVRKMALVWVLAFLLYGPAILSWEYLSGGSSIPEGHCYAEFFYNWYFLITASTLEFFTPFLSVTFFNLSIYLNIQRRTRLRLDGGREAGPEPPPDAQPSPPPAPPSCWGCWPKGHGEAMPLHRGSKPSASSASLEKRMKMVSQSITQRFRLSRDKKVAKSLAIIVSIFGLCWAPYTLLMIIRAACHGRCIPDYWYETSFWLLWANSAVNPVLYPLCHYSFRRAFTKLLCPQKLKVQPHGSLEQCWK
T1 sequence (Q9Y5N1 whole entry): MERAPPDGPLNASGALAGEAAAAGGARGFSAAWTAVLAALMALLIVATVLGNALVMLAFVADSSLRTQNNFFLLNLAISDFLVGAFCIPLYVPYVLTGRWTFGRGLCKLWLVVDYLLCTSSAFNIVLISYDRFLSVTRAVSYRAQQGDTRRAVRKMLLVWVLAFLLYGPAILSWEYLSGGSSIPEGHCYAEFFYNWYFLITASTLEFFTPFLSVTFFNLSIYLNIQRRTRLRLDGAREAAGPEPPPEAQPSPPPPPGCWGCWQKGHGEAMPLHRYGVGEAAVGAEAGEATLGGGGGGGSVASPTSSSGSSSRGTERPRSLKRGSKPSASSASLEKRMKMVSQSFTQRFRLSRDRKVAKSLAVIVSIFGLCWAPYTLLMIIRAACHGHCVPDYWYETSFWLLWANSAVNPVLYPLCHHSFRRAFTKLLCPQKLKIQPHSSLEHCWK

Structure (SMILES)	Ki (Histamine H3-receptor) [nM]	% inhibition of RAMH-induced drinking (male Sprague Dawley rats) [%]	further results
C[C@@H]1CCCN1CCc1ccc(-c2ccc(S(C)(=O)=O)cc2)cc1 [Cmpd 1, (R)-1-[2-(4′-Methanesulfonyl-biphenyl-4-yl)-ethyl]-2-methyl-pyrrolidine]	2.4		
CCS(=O)(=O)c1ccc(-c2ccc(CCN3CCC[C@H]3C)cc2)cc1 [Cmpd 2, (R)-1-[2-(4′-Ethanesulfonyl-biphenyl-4-yl)-ethyl]-2-methyl-pyrrolidine]		82.6 ± 12.9	
COCCS(=O)(=O)c1ccc(-c2ccc(CCN3CCC[C@H]3C)cc2)cc1 [Cmpd 3, (R)-1-{2-[4′-(2-Methoxy-ethanesulfonyl)-biphenyl-4-yl]-ethyl}-2-methyl-pyrrolidine]	3		
CCCS(=O)(=O)c1ccc(-c2ccc(CCN3CCC[C@H]3C)cc2)cc1 [Cmpd 5, (R)-2-Methyl-1-{2-[4′-(propane-1-sulfonyl)-biphenyl-4-yl]-ethyl}-pyrrolidine]			Ki [1]: 3.7 nM
C[C@@H]1CCCN1CCc1ccc(-c2ccc(S(=O)(=O)Cc3ccccc3)cc2)cc1 [Cmpd 6, (R)-2-Methyl-1-[2-(4′-phenylmethanesulfonyl-biphenyl-4-yl)-ethyl]-pyrrolidine]	1.1		
C[C@@H]1CCCN1CCc1ccc(-c2ccc3c(c2)C(=O)CCS3(=O)=O)cc1 [Cmpd 7, 6-{4-[2-((R)-2-Methyl-pyrrolidin-1-yl)-ethyl]-phenyl}-1,1-dioxo-1λ^6-thiochroman-4-one]		92.5 ± 15.8	Ki [1]: 2.9 nM
COCCCS(=O)(=O)c1ccc(-c2ccc(CCN3CCC[C@H]3C)cc2)cc1 [Cmpd 8, (R)-1-{2-[4′-(3-Methoxy-propane-1-sulfonyl)-biphenyl-4-yl]-ethyl}-2-methyl-pyrrolidine]	1.5		
C[C@@H]1CCCN1CCc1ccc(-c2ccc(S(=O)(=O)CCO)cc2)cc1 [Cmpd 10, 2-{4′-[2-((R)-2-Methyl-pyrrolidin-1-yl)-ethyl]-biphenyl-4-sulfonyl}-ethanol]			% Increase in wakefulness +/− s.e. (Male Sprague-Dawley rats): 46 ± 15%
C[C@@H]1CCCN1CCc1ccc(-c2ccc(S(=O)(=O)CCCO)cc2)cc1 [Cmpd 15, 3-{4′-(2-((R)-2-Methyl-pyrrolidin-1-yl)-ethyl]-biphenyl-4-sulfonyl}-propan-1-ol]		58.8 ± 16.1	
C[C@@H]1CCCN1CCc1ccc(-c2cccc(S(=O)(=O)CCO)c2)cc1 [Cmpd 17, 2-{4′-[2-((R)-2-Methyl-pyrrolidin-1-yl)-ethyl]-biphenyl-3-sulfonyl}-ethanol]	16		
